Where only a bound is given, the exact number is not on record here.

The target in assay [1] is T1, Glucocorticoid receptor (Homo sapiens, UniProt P04150).
T1 sequence (P04150 whole entry): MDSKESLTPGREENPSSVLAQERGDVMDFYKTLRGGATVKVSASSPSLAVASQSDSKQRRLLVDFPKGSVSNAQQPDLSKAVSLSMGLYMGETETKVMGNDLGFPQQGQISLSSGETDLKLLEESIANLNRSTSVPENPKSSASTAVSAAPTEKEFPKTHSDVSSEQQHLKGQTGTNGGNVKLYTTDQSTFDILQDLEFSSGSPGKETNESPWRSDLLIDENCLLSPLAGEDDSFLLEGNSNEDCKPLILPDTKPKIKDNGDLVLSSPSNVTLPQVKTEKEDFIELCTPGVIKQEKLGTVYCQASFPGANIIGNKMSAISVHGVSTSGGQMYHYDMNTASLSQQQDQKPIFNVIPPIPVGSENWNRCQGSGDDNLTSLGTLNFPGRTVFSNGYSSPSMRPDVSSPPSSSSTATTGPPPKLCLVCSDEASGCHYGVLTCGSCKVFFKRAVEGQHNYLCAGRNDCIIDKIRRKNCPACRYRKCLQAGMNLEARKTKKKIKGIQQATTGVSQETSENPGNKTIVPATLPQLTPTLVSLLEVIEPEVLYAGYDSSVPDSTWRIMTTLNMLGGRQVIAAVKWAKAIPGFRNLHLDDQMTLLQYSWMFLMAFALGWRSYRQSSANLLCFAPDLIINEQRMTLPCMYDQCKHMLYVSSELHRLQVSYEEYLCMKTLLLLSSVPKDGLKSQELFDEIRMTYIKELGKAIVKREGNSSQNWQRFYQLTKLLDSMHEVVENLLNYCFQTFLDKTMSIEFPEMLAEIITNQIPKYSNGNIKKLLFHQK

In assay [2] the target is T2, Gamma-aminobutyric acid receptor subunit alpha-1/alpha-2/beta-2/gamma-2 (Homo sapiens, UniProt P14867+P18507+P47869+P47870). In kind it is functional, cell-based.
The target of assay [3] is 5-hydroxytryptamine receptor 2A (Homo sapiens, UniProt P28223). In kind it is functional, cell-based.
Assay [4] deals with Muscarinic acetylcholine receptor M3 (Homo sapiens, UniProt P20309).
The target in assay [5] is T3, Progesterone receptor (Homo sapiens, UniProt P06401).
T3 sequence (P06401 whole entry): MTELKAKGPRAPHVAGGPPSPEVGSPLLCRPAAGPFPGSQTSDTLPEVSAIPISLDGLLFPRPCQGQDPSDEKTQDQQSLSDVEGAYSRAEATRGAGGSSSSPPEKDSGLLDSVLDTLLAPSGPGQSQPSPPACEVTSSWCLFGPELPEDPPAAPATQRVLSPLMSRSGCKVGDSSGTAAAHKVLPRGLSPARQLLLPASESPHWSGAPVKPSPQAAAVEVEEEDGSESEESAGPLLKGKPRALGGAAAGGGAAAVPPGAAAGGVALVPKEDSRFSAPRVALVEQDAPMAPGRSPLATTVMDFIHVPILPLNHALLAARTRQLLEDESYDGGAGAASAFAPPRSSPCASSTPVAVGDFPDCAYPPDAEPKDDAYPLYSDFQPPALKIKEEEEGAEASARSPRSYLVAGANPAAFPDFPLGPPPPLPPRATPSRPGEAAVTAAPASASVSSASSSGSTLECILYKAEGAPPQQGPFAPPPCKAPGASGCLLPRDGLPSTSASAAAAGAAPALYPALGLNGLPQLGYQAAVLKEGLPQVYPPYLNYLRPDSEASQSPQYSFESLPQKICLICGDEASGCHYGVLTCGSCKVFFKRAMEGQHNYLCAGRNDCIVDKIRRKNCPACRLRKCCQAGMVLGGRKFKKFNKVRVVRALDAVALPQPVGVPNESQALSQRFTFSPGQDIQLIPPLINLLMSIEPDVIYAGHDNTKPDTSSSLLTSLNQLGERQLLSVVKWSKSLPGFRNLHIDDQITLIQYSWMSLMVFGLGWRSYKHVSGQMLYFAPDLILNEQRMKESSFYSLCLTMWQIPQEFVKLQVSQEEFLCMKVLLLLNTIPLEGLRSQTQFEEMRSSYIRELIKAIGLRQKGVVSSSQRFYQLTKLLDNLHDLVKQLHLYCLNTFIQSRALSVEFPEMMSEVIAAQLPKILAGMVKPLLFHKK

In assay [6] the target is T4, Endothelin receptor type B (Homo sapiens, UniProt P24530).
T4 sequence (P24530 whole entry): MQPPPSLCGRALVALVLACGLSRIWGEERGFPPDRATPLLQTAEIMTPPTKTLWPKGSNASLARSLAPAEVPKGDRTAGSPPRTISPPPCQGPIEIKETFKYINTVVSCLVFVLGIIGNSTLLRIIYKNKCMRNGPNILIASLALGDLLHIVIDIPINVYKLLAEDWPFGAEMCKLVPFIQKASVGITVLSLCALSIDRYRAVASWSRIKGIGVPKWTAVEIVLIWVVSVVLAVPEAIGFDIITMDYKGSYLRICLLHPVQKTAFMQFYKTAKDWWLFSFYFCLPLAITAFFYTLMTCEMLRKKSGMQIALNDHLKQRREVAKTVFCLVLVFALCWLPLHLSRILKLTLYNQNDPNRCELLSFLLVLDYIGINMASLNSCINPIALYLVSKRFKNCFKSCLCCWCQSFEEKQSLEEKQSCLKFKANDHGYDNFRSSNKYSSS

Assay [7] concerns the target Glucagon receptor (Homo sapiens, UniProt P47871).
Assay [8] deals with Voltage-dependent N-type calcium channel subunit alpha-1B (Rattus norvegicus, UniProt Q02294). In kind it is functional.
The target in assay [9] is T5, D(4) dopamine receptor (Homo sapiens, UniProt P21917).
T5 sequence (P21917 whole entry): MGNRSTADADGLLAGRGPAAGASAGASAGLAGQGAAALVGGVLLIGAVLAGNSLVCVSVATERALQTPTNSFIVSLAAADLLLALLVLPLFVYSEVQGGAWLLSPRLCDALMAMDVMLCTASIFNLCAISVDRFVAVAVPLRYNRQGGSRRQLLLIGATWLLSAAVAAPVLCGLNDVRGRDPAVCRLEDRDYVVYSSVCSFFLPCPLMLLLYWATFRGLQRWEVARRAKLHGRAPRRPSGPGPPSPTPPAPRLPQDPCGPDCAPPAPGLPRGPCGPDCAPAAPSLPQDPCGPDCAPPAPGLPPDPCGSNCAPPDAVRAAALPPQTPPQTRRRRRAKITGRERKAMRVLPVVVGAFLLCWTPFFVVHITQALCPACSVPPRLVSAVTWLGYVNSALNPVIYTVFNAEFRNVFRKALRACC

Assay [10] concerns the target T2, Gamma-aminobutyric acid receptor subunit alpha-1/alpha-2/beta-2/gamma-2. In kind it is protein-complex assay.
Note: assay procedure not described here.

T2 sequence (P14867 whole entry): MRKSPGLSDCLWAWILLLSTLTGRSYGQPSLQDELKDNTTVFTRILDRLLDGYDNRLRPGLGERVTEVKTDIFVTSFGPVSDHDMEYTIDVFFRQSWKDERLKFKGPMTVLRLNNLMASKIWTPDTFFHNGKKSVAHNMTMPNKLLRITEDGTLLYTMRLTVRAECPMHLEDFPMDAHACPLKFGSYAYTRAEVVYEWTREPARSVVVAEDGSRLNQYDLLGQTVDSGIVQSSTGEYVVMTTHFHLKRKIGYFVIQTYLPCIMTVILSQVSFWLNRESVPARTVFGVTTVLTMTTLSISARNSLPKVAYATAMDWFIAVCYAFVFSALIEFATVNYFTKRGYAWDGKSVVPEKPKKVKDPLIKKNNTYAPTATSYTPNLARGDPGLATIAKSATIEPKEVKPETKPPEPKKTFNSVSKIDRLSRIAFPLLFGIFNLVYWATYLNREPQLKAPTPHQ
T2 sequence (P47870 whole entry): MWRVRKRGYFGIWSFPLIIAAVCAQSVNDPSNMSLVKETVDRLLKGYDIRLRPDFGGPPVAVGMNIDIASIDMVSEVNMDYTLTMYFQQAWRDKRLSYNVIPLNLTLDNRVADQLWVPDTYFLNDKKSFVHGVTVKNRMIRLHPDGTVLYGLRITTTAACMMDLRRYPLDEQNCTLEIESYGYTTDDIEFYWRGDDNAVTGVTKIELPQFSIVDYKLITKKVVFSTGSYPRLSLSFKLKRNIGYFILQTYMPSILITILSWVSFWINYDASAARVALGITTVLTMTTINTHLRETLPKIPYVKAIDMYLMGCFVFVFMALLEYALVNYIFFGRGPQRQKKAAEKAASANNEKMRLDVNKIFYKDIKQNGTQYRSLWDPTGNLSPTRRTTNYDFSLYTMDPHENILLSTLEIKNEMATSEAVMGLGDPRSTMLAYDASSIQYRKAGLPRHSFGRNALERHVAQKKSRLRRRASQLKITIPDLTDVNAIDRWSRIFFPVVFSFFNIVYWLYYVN
T2 sequence (P18507 whole entry): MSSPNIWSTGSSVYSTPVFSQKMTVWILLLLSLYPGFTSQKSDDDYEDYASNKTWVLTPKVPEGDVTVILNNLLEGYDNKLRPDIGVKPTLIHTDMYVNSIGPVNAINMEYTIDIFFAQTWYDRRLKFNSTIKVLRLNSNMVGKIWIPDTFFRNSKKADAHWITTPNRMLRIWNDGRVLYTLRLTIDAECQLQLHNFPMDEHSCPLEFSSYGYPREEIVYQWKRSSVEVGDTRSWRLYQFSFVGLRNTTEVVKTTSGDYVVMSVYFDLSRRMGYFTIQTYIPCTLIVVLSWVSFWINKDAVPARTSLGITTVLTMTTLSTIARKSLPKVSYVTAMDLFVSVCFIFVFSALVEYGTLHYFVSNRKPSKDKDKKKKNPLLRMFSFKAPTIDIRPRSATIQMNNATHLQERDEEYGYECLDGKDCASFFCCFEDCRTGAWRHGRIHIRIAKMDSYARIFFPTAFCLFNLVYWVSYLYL
T2 sequence (P47869 whole entry): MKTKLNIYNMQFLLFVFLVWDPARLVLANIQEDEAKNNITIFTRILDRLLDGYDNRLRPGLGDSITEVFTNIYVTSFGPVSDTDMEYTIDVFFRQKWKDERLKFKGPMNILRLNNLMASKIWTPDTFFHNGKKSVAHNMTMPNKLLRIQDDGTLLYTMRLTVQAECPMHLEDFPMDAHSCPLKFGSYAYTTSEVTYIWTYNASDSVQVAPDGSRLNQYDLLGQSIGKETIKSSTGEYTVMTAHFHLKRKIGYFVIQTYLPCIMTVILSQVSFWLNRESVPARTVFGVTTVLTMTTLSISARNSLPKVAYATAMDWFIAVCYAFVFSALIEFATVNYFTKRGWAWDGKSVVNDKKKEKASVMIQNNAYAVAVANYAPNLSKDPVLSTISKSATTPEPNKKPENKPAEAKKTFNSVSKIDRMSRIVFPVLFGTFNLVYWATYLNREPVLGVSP
Sequence of Glucagon receptor (P47871 whole entry): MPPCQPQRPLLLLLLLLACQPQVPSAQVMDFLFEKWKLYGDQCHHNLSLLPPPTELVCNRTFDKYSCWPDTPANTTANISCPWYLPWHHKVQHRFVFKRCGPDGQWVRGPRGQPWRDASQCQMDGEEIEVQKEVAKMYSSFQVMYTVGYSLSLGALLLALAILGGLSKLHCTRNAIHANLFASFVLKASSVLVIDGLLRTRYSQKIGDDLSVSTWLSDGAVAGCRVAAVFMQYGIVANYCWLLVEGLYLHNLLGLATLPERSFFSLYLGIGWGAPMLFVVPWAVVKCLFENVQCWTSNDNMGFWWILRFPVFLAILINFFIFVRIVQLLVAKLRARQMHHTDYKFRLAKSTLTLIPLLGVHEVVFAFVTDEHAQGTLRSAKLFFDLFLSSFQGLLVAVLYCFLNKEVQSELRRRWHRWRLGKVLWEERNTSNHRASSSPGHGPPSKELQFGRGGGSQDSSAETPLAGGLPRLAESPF
Sequence of 5-hydroxytryptamine receptor 2A (P28223 whole entry): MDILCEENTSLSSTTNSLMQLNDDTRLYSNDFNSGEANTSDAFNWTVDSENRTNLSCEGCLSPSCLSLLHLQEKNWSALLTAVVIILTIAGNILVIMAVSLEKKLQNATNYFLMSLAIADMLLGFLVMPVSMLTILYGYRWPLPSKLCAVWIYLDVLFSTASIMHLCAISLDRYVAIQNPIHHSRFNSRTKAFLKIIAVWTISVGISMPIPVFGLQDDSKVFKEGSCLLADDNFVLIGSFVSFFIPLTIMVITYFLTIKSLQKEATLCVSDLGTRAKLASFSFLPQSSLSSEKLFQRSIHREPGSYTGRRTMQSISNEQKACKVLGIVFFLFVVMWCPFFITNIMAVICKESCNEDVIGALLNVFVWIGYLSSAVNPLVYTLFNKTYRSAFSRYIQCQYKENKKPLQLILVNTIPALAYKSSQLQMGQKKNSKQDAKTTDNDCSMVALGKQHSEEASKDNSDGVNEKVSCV
Sequence of Muscarinic acetylcholine receptor M3 (P20309 whole entry): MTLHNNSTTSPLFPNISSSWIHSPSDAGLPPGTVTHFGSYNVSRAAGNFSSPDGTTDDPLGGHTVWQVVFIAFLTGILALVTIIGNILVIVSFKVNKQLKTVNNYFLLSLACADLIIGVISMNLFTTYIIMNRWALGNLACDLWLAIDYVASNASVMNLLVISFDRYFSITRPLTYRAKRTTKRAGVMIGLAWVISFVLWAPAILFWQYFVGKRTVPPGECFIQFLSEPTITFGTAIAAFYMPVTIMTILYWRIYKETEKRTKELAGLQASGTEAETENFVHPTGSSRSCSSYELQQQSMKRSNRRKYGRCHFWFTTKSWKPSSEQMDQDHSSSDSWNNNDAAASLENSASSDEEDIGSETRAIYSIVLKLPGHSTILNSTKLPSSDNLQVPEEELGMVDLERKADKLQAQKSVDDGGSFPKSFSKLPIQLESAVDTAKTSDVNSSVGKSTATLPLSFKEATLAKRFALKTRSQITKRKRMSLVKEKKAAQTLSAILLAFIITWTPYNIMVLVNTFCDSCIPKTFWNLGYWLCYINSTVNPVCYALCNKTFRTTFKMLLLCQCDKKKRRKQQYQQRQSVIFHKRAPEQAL

For `C[C@@H](NCCCc1cccc(C(F)(F)F)c1)c1cccc2ccccc12`, the AC50 in assay [1] is more than 30 µM; in assay [2] it was more than 30 µM; in assay [3], more than 30 µM; in [4], 14 µM.
Turning to `Nc1ccc(S(=O)(=O)Nc2nccs2)cc1` [SULFATHIAZOLE], the AC50 in assay [1] was more than 30 µM; in assay [5], more than 30 µM; in [6], more than 30 µM; in [7], more than 30 µM; in [8] it was more than 10 µM; in assay [9], more than 10 µM.
Regarding `OC[C@H]1O[C@@](CO)(O[C@H]2O[C@H](CO)[C@@H](O)[C@H](O)[C@H]2O)[C@@H](O)[C@@H]1O` [SUCROSE], the AC50 in assay [2], in assay [3] and in assay [4] was more than 30 µM in each case.
As for `COc1cc2nccc(Oc3ccc(NC(=O)C4(C(=O)Nc5ccc(F)cc5)CC4)cc3)c2cc1OC` [CABOZANTINIB], the AC50 in assay [2] was more than 30 µM; in assay [10] it was more than 30 µM; in assay [3] it was 2.9 µM; in [4], more than 30 µM.
Take `CC(S)C(=O)NCC(=O)O` (centres undefined) [TIOPRONIN]: the AC50 in [2], in assay [3] and in assay [4] was more than 30 µM in each case.
Turning to `O=C1CCc2cc(OCCCCc3nnnn3C3CCCCC3)ccc2N1` [CILOSTAZOL], the concentration at half-maximal activity (AC50) in assay [1] and in assay [5] was more than 30 µM throughout.
As for `CCN(CC)CCNC(=O)c1c(C)[nH]c(/C=C2\C(=O)Nc3ccc(F)cc32)c1C` [SUNITINIB], the AC50 is more than 30 µM in assay [1] and 0.108 µM in [9].
`COc1ccccc1Oc1c(NS(=O)(=O)c2ccc(C(C)(C)C)cc2)nc(-c2ncccn2)nc1OCCO` [BOSENTAN]: the AC50 in assay [1] is more than 30 µM; in assay [5], more than 30 µM; in assay [7], more than 30 µM; in assay [4], more than 30 µM; in [8] it was more than 10 µM.
With `C[C@H]1c2cccc(O)c2C(=O)C2=C(O)[C@]3(O)C(=O)C(C(N)=O)=C(O)[C@@H](N(C)C)[C@@H]3[C@@H](O)[C@@H]21` [DOXYCYCLINE], the half-maximal activity concentration (AC50) in [5] is more than 30 µM; in [6] it was more than 30 µM; in [7], more than 30 µM; in [8], more than 10 µM; in [9], more than 10 µM.
As to `CC(C)N(CCC(C(N)=O)(c1ccccc1)c1ccccn1)C(C)C` (centres undefined) [DISOPYRAMIDE], the AC50 in [5] is more than 30 µM; in assay [6], more than 30 µM; in assay [7] it was more than 30 µM; in assay [4], more than 30 µM; in [8], more than 10 µM.
With `CCN1CCN(Cc2ccc(Nc3ncc(F)c(-c4cc(F)c5nc(C)n(C(C)C)c5c4)n3)nc2)CC1` [ABEMACICLIB], the figures for the AC50 in assay [2], in [3] and in assay [4] were more than 30 µM, 28 µM and more than 30 µM, respectively.
As to `CN(CC1(C)CCCO1)S(=O)(=O)c1ccc(Cl)c(S(N)(=O)=O)c1` (centres undefined) [MEFRUSIDE], the AC50 in assay [2], in assay [3] and in assay [4] was more than 30 µM each time.
Consider `C[C@H](CCC(=O)O)[C@H]1CC[C@H]2[C@@H]3[C@@H](O)C[C@@H]4C[C@H](O)CC[C@]4(C)[C@H]3CC[C@]12C` [URSODIOL], for which the half-maximal activity concentration (AC50) in assay [2], in assay [3] and in assay [4] was more than 30 µM each time.
Turning to `CC(C)c1nc(N(C)S(C)(=O)=O)nc(-c2ccc(F)cc2)c1/C=C/[C@@H](O)C[C@@H](O)CC(=O)O` [ROSUVASTATIN], the concentration at half-maximal activity (AC50) in assay [1], in [2], in assay [3] and in [4] was more than 30 µM each time.
`COc1cc2nc(N3CCN(C(=O)C4CCCO4)CC3)nc(N)c2cc1OC` (centres undefined) [TERAZOSIN]: the concentration at half-maximal activity (AC50) is more than 30 µM in assay [1]; more than 30 µM in assay [6]; more than 30 µM in [7]; more than 10 µM in assay [8]; more than 10 µM in [9].
For the compound `CO[C@H]1/C=C/O[C@@]2(C)Oc3c(C)c(O)c4c(O)c(c(/C=N/N5CCN(C)CC5)c(O)c4c3C2=O)NC(=O)/C(C)=C\C=C\[C@H](C)[C@H](O)[C@@H](C)[C@@H](O)[C@@H](C)[C@H](OC(C)=O)[C@@H]1C` [RIFAMPIN], the AC50 in [5] was more than 30 µM; in [6], more than 30 µM; in [7] it was more than 30 µM; in assay [8], more than 10 µM; in assay [9], more than 10 µM.
Take `CN(C)CCC[C@@]1(c2ccc(F)cc2)OCc2cc(C#N)ccc21` [ESCITALOPRAM]: the AC50 in assay [1] and in [2] was more than 30 µM in each case.
In [10], `C[C@]1(Cn2ccnn2)[C@H](C(=O)O)N2C(=O)C[C@H]2S1(=O)=O` [TAZOBACTAM] yielded a concentration at half-maximal activity (AC50) of more than 30 µM.
On the same count and under the same terms, to `CN1CCCCC1CCN1c2ccccc2Sc2ccc([S+](C)[O-])cc21` (centres undefined) [MESORIDAZINE] belongs more than 30 µM.
As to `CN1C[C@H](C(=O)N[C@]2(C)O[C@@]3(O)[C@@H]4CCCN4C(=O)[C@H](Cc4ccccc4)N3C2=O)C=C2c3cccc4[nH]cc(c34)C[C@H]21` [ERGOTAMINE], the concentration at half-maximal activity (AC50) in [2] is more than 30 µM.
Compound `N[C@@H](CS)C(=O)O` [CYSTEINE] yielded a half-maximal activity concentration (AC50) in assay [10] of more than 30 µM.
Turning to `C=C[C@H]1C[N@@]2CC[C@H]1C[C@@H]2[C@@H](O)c1ccnc2ccc(OC)cc12` [QUINIDINE], the concentration at half-maximal activity (AC50) in assay [5] and in assay [4] was more than 30 µM in each case.
In the case of `C[C@@H](Oc1cc(-c2cnn(C3CCNCC3)c2)cnc1N)c1c(Cl)ccc(F)c1Cl` [CRIZOTINIB], the AC50 in [2], in assay [7] and in [4] was more than 30 µM each time.
`CC(CCc1ccccc1)NCC(O)c1ccc(O)c(C(N)=O)c1` (centres undefined) [LABETALOL] showed a concentration at half-maximal activity (AC50) in assay [10] of more than 30 µM.

Usually AC50 stands for the concentration at which the activity in the assay is half-maximal.

Source of the values: ChEMBL document CHEMBL5291721, “A preclinical secondary pharmacology resource illuminates target-adverse drug reaction associations of marketed drugs” (Nat Commun, 2023).
